US20230181554A1, “AGENT FOR PROTECTING AND/OR REGENERATING NEUROMUSCULAR JUNCTION” (ONO PHARMACEUTICAL CO., LTD., priority 2020, published 2023)

Assays:
[1] = system: co-culture of mouse myoblast cell line C2C12 cells into which human mutant SOD1 (G93A) was introduced and mouse primary cultured motor neurons; assay: Neuromuscular junction formation in co-culture, α-bungarotoxin-positive area; type: cell-based; conditions: for concentration from which the positive area of the neuromuscular junction was significantly increased: α-bungarotoxin-positive area on day 11 after treatment, versus control (Dunnett's test); for positive area of the neuromuscular junction: day 11
[2] = system: mouse primary cultured motor neurons; assay: Neurite outgrowth action in mono-culture of motor neurons; type: cell-based; conditions: total protrusion length on day 4 after treatment, versus control (Dunnett's test)
Experimental: In a mono-culture system of mouse primary cultured motor neurons, the neurite outgrowth action of a sterol C14-reductase inhibitor (TM7SF2 inhibitor) and FF-MAS was evaluated. The mouse primary cultured motor neurons were prepared from an embryonic day 13 mouse fetus. In other words, a mouse on day 13 of gestation was subjected to cervical dislocation and euthanized, and the abdomen was incised to extract the fetus. The fetus was decapitated, and then the spinal cord was extracted under a stereomicroscope. The spinal cord was treated with HBSS containing 0.25% trypsin at 37° C. for 15 minutes, then the supernatant was removed, washing was performed 3 times with HBSS, 2 mL of a dispersion solution was added, and pipetting was repeated with a tapered Pasteur pipette to prepare a cell suspension. The cell suspension was centrifuged (200 g, 5 minutes), 2 mL of a motor neuron medium was added to the sediment, the suspension was resuspended, and the number of cells was measured. The mouse primary cultured motor neurons suspended in the motor neuron medium were seeded on a 96-well imaging plate coated with poly-D-lysine at 1.5×10^4 cells/100 μL/well. […] The neurite length was evaluated by immunostaining the nuclei and protrusions of nerve cells. […] As primary antibodies, Anti-Neuron-specific beta-III Tubulin Antibody (R&D Systems, Inc., MAB1195, 1/1,000 dilution) and Anti-NeuN Antibody (Merck Millipore, ABN78, 1/500 dilution) diluted with a blocking solution were added in an amount of 50 and the plate was allowed to stand at 4° C. overnight. After washing 3 times with 100 to 150 μL/well of PBS, 50 μL/well of Alexa Fluor 647 goat anti-mouse IgG (H+L) (Invitrogen, A-21236, 1/1,000 dilution) and Alexa Fluor 488 goat anti-rabbit IgG (H+L) (Invitrogen, A-11034, 1/1,000 dilution) as secondary antibodies were added, and the plate was allowed to stand at room temperature for 1 hour while being shielded from light, and then washed 3 times with 100 to 150 μL/well of PBS. The stained plate was photographed using the Opera Phenix high-throughput high-content imaging system ([…] Japan). Images of 5 fields per well were acquired using an Alexa Fluor 647 wavelength filter for photographing neurites and an Alexa Fluor 488 wavelength filter for photographing nuclei of nerve cells, nuclei of nerve cells and neurites per field were analyzed by an analysis program, and the sum of neurite lengths per field was calculated. Taking the mean of the sum of neurite lengths in the vehicle group (0.03% DMSO or 0.2% ethanol) evaluated for each plate as 100%, the sum of neurite lengths in the sterol C14-reductase inhibitor (TM7SF2 inhibitor) and FF-MAS treatment groups was calculated.

[3] = system: rat primary Schwann cells; assay: Schwann cell differentiation-promoting action (MAG expression); type: cell-based; conditions: day 3 after treatment, versus control (Dunnett's test)
Experimental: The Schwann cell differentiation-promoting action of FF-MAS was evaluated in a culture system of rat primary Schwann cells. In other words, neonatal rats aged 0 to 2 days after birth were decapitated, then sterilized by being immersed in ethanol for disinfection, moved to a clean bench, and then washed with a recovery medium (Dulbecco's modified Eagle medium (Sigma Aldrich, product number D5921) without phenol red containing 1 vol % Antibiotic-Antimycotic (Antibiotic-Antimycotic 100×, Thermo Fisher Scientific, Inc., product number 15240062)). Thereafter, the dorsal root ganglion was extracted under a microscope and recovered in a 15 mL tube filled with the recovery medium. The recovered tube was centrifuged at 400 g for 3 minutes at room temperature, and the supernatant was removed. […] The number of cells in the filtered cell suspension was counted and adjusted to 2.0×10^5 cells/mL, and then the cells were seeded on a 96-well plate coated with poly-D-lysine at 100 μL/well each, and statically cultured in a CO2 incubator under conditions of 5% CO2, 95% air, and 37° C. […] The Schwann cell differentiation-promoting action was evaluated on the basis of the expression level of myelin-associated glycoprotein (hereinafter referred to as MAG). […]

[4] = system: C2C12 cells in which human mutant SOD1 (G93A) was overexpressed alone and mouse primary motor neurons; assay: Neuromuscular junction formation in co-culture, C2C12 overexpressing human mutant SOD1 (G93A) alone; type: cell-based; conditions: day 11
[5] = system: C2C12 cells in which both human mutant SOD1 (G93A) and a human TM7SF2 gene were overexpressed and mouse primary motor neurons; assay: Neuromuscular junction formation in co-culture, C2C12 overexpressing human mutant SOD1 (G93A) and human TM7SF2; type: cell-based; conditions: same concentration range (0.1, 0.3, 1, and 3 μmol/L), day 11
[6] = system: mouse myoblast cell line C2C12 cells into which human mutant SOD1 (G93A) was introduced; assay: FF-MAS and 14-dehydrozymosterol accumulation action in myotube-like differentiated C2C12 cells (LC/APCI-MS/MS); type: cell-based; conditions: for intracellular FF-MAS concentration: cells recovered at 3 and 24 hours after treatment, DMSO treatment group below the detection limit; for concentration of 14-dehydrozymosterol: same treatment as for FF-MAS, cells recovered at 3 and 24 hours
Experimental: After mouse myoblast cell line C2C12 cells into which human mutant SOD1 (G93A) was introduced were myotube-like differentiated, the cells were treated with sterol C14-reductase inhibitors (TM7SF2 inhibitors) (amorolfine, ziprasidone, and ifenprodil), and the fluctuation of sterol in the cells was evaluated. In other words, in order to differentiate C2C12 cells into myotubes, C2C12 cells that had been cultured using 15% FBS-DMEM (Dulbecco's modified Eagle's medium containing 15% fetal bovine serum and 100 units/mL penicillin-100 μg/mL streptomycin) were cultured for 2 days in a culture flask after the medium was replaced with a low-serum medium (Dulbecco's modified Eagle's medium containing 0.5% FBS, 1% insulin-transferrin-selenium, and 100 units/mL penicillin-100 μg/mL streptomycin). Then, in order to remove proliferating undifferentiated cells, the medium was replaced with a low-serum medium containing 10 μmol/L arabinocytidine (AraC), and the cells were further cultured for 2 days. The myotube-like differentiated C2C12 cells were detached from the culture flask by treatment with 0.25% trypsin-1 mmol/L EDTA, and then the cells were seeded on a 3.5-cm culture dish coated with Matrigel at 2.4×10^5 cells/dish, and cultured for 3 days. After treatment with a sterol C14-reductase inhibitor (TM7SF2 inhibitor) or 0.03% DMSO, the cells were recovered at 3 and 24 hours. After removing the medium and washing with phosphate buffered saline (PBS), the cells were recovered with 200 µL of 90% methanol containing 1 μmol/L d7-cholesterol (internal standard substance), and further recovered again with 200 μL of a 90% methanol solution, so that a total of about 400 μL of a cell recovery solution was obtained. Then, 160 μL of this cell recovery solution was pretreated by a solid-phase extraction method using OASIS PRiME HLB glution Plate, and a sample eluted with methanol/IPA (1 : 1) was measured by high-performance liquid chromatography/atmospheric pressure chemical ionization-tandem mass spectrometry (LC/APCI-MS/MS), and each concentration in the recovery solution was calculated by an internal standard calibration curve method.

[7] = system: myasthenia gravis model rat; assay: Rat myasthenia gravis model (mAb35 induced), grip strength; type: in vivo; conditions: grip strength at 96 hours after induction by mAb35; repeated oral administration once a day; versus control (Dunnett's test)
Experimental: The efficacy of ifenprodil, which is a sterol C14-reductase inhibitor (TM7SF2 inhibitor), in a rat myasthenia gravis model was evaluated. The rat myasthenia gravis model is a model in which a neuromuscular junction (NMJ) is impaired and motor functions such as grip strength are declined by treating a rat with mAb35, which is an antibody against an anti-acetylcholine receptor. First, an anti-acetylcholine receptor antibody mAb35 (Bio X Cell, product number BE0123) as an inducing agent was intraperitoneally administered to a 5-week-old female LEW/CrlCrlj rat at a concentration of 0.29 mg/mL and a volume of 5 mL/kg to induce a pathological condition. Ifenprodil (MedChemExpress, product number HY-12882A) as a test substance was dissolved in water for injection (Otsuka Pharmaceutical Factory, Inc.) containing 2% DMSO so that the concentration is 0.1, 0.3, and 1 mg/mL to prepare an administration solution. Ifenprodil was repeatedly orally administered once a day at doses of […] from 9 hours after induction by administration of mAb35 to 4 days after induction as the evaluation end date. […] The grip strength was measured on the day before induction (pre-value). […] For quantitative evaluation of the grip strength, a grip strength measuring device Traction Meter (BrainScience idea Co., Ltd.) was used.

SMILES	concentration from which the positive area of the neuromuscular junction was significantly increased [1] [µmol/L]	concentration from which the sum of neurite lengths was significantly increased [2] [µmol/L]	intracellular FF-MAS concentration [6]	concentration of 14-dehydrozymosterol [6]	other results
CC(C)=CCC[C@@H](C)[C@H]1CC=C2C3=C(CC[C@@]21C)[C@@]1(C)CC[C@H](O)C[C@@H]1CC3 [14-dehydrozymosterol, 5alpha-cholesta-8,14,24-trien-3beta-ol]	10				
CC(C)=CCC[C@@H](C)[C@H]1CC=C2C3=C(CC[C@@]21C)[C@@]1(C)CC[C@H](O)C(C)(C)[C@@H]1CC3 [FF-MAS, 4,4-dimethyl-5alpha-cholesta-8,14,24-trien-3beta-ol]	10	1.1			concentration from which the value of MAG/number of cell nuclei was significantly increased [3]: 3 µmol/L
COc1ccc(S(=O)(=O)N2CCC(N3CCC(C)CC3)CC2)cc1 [TASIN-1]					positive area of the neuromuscular junction [1]: no significant increase
CCC(C)(C)c1ccc(CC(C)CN2C[C@@H](C)O[C@@H](C)C2)cc1 (stereo partly shown) [amorolfine]	0.3	0.3	increase	increase	positive area of the neuromuscular junction ([4]; at 1 μmol/L): significantly increased; positive area of the neuromuscular junction ([4]; at 3 mol/L): significantly increased; positive area of the neuromuscular junction [5]: no increasing fluctuation
CC(C(O)c1ccc(O)cc1)N1CCC(Cc2ccccc2)CC1 (stereo not shown) [ifenprodil]	1	1	increase	increase	dose from which the grip strength was significantly improved [7]: 3 mg/kg
O=C1Cc2cc(CCN3CCN(c4nsc5ccccc45)CC3)c(Cl)cc2N1 [ziprasidone]	3	1	increase	increase	
CC(C)=CCC[C@@H](C)[C@H]1CC[C@H]2C3=C(CC[C@]12C)[C@@]1(C)CC[C@H](O)C[C@@H]1CC3 [zymosterol]					positive area of the neuromuscular junction ([1]; added at 0.05 to 10 μmol/L): no significant increase
